Results reported in US12595269B2, “Morpholine-like monoamine releasers” (Solvonis Therapeutics Ireland Holdings Limited, priority 2022, dated 2026).
Like-named read-outs stand apart in the source and are kept apart here.

Tests used:
CYP3A4 = biological target: T1, CYP3A4 (Homo sapiens, UniProt P08684); experiment: CYP450 inhibition, fluorescent probes 7BQ and DBOMF: CYP3A4; format: in vitro ADME; details: for IC50 at 10 min: human
T1 construct: purchased Life Technologies P2377; host or cells: Baculosomes
Description: (§1) Methods and Procedure: The study was performed in agreement with previously described procedures to assure data integrity and adherence to GLP standards. Briefly, recombinant human CYP450 isoenzymes were used to metabolize pro-fluorescent probe substrates to fluorescent products. IC50 values determined from the effect of test compounds on the metabolism of these probe substrates were then used to determine inhibitory potency against CYP450 isoforms.
The test system was based on a three-step procedure with a “mix and read” format, where PGP-432,TI reaction and reading were performed at 37° C. The assays described herein measure in vitro inhibitory effects (pIC50) of compounds on the human P450 isoforms (1A2, 2B6, 2C8, 2C9, 2C19, 2D6, 3A4) expressed in recombinant microsomes. Pro-fluorescent probe substrates were metabolized to fluorescent products by the enzymes. Fluorescence was measured in kinetic mode (1 read/minutes for 10 minutes), and the fluorescence rate was calculated.
Inhibition of the fluorescent signal resulting from P450 activation indicated inhibitory activity and facilitated calculation of the compound pIC50. […] Concentration response curves (CRCs) of compounds were run on two different test occasions (n=2) by preparing serial dilutions from the dame compound stock solution.
To prepare the compound plate, test compounds serial dilutions 1 to 3 were performed from a 10 mM stock solution in DMSO by Biomek FX to generate 10 point CRC with the highest concentrations in columns 3 and 13.
100% DMSO was placed in columns 1 and 2 and used for assay low controls. CYP inhibitor (10 mM miconazole solution in DMSO) was placed in columns 23 and 24 and served as an assay high controls. 1 μL copy plates were then stamped into V-bottom drug plates at a concentration that is 200 fold the final assay concentration. The copy plates were diluted prior to the experiment with assay buffer to reach 4 times the final assay concentration (2% w/v DMSO).
A reference compound (e.g., miconazole) was included in each compound plate in row A, column 3 and 13. The reference compound was diluted and stamped together with test compounds. The final concentrations of the 10 point CRCs of test compounds in the assay plate were 5.00E-05; 1.67E-05; 5.56E-06; 1.85E-06; 6.17E-07; 2.06E-07; 6.86E-08; 2.29E-08; 7.62E-09 and 2.54E-09, respectively. […]
Microsomes were added to the buffer prior to the substrate addition. […] For fluorescence measurement, 10 μL/well of the test compounds were transferred from the compound plate to the assay plate using Biomek FX and the appropriate protocol. […]
10 μL/well of the cofactor was then added to the assay plate using the Multidrop before placing the assay plate in the plate reader EnVision to measure fluorescence. […]

CYP2B6 = biological target: T2, CYP2B6 (Homo sapiens, UniProt P20813); experiment: CYP450 inhibition, Vivid CYP2B6 Baculosomes, BOMCC substrate; format: in vitro ADME
T2 construct: purchased Life Technologies P3028; host or cells: Baculosomes
T2 sequence (P20813 1-491): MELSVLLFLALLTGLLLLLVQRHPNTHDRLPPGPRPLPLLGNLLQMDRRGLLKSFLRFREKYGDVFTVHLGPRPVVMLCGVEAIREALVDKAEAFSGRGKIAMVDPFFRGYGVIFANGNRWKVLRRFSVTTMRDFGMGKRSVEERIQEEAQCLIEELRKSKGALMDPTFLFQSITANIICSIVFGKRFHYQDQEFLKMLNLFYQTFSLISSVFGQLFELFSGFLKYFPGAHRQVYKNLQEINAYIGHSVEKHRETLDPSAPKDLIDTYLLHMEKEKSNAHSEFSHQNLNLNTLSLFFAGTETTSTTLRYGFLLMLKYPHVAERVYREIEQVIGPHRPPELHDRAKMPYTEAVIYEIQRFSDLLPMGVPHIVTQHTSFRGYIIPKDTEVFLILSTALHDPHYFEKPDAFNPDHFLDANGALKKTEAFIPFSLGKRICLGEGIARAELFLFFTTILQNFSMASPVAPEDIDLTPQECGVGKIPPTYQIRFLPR
Description: as §1
The test system was based on a three-step procedure with a “mix and read” format, where PGP-432,TI reaction and reading were performed at 37° C. […] Fluorescence was measured in kinetic mode (1 read/minutes for 10 minutes), and the fluorescence rate was calculated. […]
Next, 10 μL/well from the compound plate was added and incubated for 10 minutes at 37° C. on a plate shaker, while a mixture of Vivid Substrate and Vivid NADP+ in Vivid CYP450 Reaction Buffer was prepared. The reaction was initiated by adding 10 μL/well of the Vivid Substrate and NADP+ mixture, before transferring the plate into the fluorescent plate reader (immediately, within 2 minutes), and fluorescence was monitored every minute for 10 minutes according to the specific protocol. Regarding data analysis, the inhibition effect is expressed as a percentage. […]

T1 sequence (P08684 whole entry): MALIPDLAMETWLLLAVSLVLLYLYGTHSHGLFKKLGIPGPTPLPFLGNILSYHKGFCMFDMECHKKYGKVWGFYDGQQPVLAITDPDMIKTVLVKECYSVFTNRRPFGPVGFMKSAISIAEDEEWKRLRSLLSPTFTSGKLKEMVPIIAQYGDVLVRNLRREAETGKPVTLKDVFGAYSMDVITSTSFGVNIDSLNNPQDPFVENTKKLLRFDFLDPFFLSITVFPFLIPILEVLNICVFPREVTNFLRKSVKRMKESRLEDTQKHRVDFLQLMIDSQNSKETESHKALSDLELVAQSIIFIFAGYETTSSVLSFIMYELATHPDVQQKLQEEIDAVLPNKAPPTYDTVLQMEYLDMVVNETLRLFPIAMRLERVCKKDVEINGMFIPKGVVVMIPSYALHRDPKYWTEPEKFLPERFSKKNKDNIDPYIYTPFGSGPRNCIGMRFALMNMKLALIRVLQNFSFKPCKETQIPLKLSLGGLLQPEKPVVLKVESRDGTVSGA

SMILES	IC50 at 10 min (CYP3A4; recombinant CYP3A4 Baculosomes, pH 8, probe Vivid DBOMF)	IC50 at 10 min (CYP3A4; recombinant microsomes expressing CYP3A4, probe 7BQ)	IC50 at 10 min (CYP2B6; human, recombinant CYP2B6 Baculosomes, pH 8, probe Vivid BOMCC)	IC50 (CYP3A4; recombinant human CYP3A4, substrate 7BQ, read-out: CYP450 Inhibition (IC50), CYP3A4 (7BQ))	IC50 (CYP3A4; recombinant human CYP3A4, substrate DBOMF, read-out: CYP450 Inhibition (IC50), CYP3A4 (DBOMF))	IC50 (CYP2B6; recombinant human CYP2B6)
CNC(C)Cc1ccc2c(c1)OCO2 (stereo not drawn) [MDMA, reference compound]	50 µM	50 µM	50 µM			
Clc1ccc(C23CNC(CO2)C3)cc1Cl (stereo not drawn) [522A, 1-(3,4-dichlorophenyl)-2-oxa-5-azabicyclo[2.2.1]heptane]				> 50 µM	> 50 µM	41 µM
